Experimental data: doi:10.1101/2023.12.04.569845, “Identification of 4-(6-((2-methoxyphenyl)amino)pyrazin-2-yl)benzoic acids as CSNK2A inhibitors with antiviral activity and improved selectivity over PIM3” (bioRxiv, 2023)
Like-named read-outs stand apart in the source and are kept apart here.

Legend:
Experiment in all cases: biochemical
Set-up in all cases: Thermal shift (DSF, SYPRO Orange) Tm shift of recombinant kinase domains at 10 uM compound
FES = FES (Homo sapiens, UniProt P07332)
Procedure: (§1) S23 Thermal stability kinase selectivity. The assay was performed as previously described. 9,10 Briefly, recombinant protein kinase domains at a concentration of 2 μM were mixed with 10 μM compound in a buffer containing 20 mM HEPES, pH 7.5, and 500 mM NaCl. SYPRO Orange (5000×, Invitrogen) was added as a fluorescence probe (1 µl per mL). Subsequently, temperature-dependent protein unfolding profiles were measured using the QuantStudio™ 5 realtime PCR machine (Thermo Fisher). […] The temperature was raised with a step rate of 3°C per minute. Data points were analysed with the internal software (Thermal Shift SoftwareTM Version 1.4, Thermo Fisher) using the Boltzmann equation to determine the inflection point of the transition curve.

JNK2 = biological target: T1, JNK2 (Homo sapiens, UniProt P45984)
T1 construct: gene MAPK9
Procedure: as §1

JNK3 = biological target: T2, JNK3 (Homo sapiens, UniProt P53779)
T2 construct: gene MAPK10
Procedure: as §1

LOK = biological target: T3, LOK (Homo sapiens, UniProt O94804)
T3 construct: gene STK10
Procedure: as §1

MAP2K7 = biological target: T4, MAP2K7 (Homo sapiens, UniProt O14733)
T4 sequence (O14733 1-419): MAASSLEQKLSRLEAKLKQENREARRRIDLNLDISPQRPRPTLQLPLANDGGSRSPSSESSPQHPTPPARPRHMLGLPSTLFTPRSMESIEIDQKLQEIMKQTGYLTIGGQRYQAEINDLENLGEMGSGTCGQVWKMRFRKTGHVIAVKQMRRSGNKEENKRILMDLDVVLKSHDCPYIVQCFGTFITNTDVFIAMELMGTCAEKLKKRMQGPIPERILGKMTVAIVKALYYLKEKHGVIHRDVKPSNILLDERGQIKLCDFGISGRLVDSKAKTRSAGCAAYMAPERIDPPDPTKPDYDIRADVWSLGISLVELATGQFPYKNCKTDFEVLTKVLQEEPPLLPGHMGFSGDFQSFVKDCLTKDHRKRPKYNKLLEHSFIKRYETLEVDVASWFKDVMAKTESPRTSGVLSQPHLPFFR
Procedure: as §1

MSK1_b = biological target: T5, MSK1_b (Homo sapiens, UniProt O75582)
T5 construct: gene RPS6KA5; second (C-terminal) kinase domain
Procedure: as §1

MST2 = biological target: T6, MST2 (Homo sapiens, UniProt Q13188)
T6 construct: gene STK3
T6 sequence (Q13188 1-491): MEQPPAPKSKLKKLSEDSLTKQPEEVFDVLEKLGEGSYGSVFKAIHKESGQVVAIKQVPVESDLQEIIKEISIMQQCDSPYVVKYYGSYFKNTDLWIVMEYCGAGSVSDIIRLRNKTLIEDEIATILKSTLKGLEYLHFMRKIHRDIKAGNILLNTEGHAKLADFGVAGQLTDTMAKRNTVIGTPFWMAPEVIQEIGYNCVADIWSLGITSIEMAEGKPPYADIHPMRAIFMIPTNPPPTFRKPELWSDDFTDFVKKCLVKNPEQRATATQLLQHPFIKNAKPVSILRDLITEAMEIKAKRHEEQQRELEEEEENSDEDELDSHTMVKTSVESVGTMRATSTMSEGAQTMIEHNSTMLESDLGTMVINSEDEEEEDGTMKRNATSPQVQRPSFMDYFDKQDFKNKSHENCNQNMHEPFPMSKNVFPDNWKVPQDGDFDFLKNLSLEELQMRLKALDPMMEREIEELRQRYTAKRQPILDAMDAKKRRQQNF
Procedure: as §1

VRK1 = biological target: T7, VRK1 (Homo sapiens, UniProt Q99986)
T7 sequence (Q99986 1-396): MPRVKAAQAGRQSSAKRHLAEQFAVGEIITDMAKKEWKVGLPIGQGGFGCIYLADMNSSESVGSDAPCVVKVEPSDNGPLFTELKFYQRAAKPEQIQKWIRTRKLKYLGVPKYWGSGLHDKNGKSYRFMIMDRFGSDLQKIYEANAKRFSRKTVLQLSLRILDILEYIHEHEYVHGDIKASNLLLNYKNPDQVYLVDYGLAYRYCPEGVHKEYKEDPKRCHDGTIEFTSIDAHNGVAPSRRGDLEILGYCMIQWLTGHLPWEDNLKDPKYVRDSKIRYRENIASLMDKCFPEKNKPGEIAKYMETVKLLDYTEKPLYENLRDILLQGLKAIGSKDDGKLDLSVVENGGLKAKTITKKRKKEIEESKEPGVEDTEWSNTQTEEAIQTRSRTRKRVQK
Procedure: as §1

T1 sequence (P45984 whole entry): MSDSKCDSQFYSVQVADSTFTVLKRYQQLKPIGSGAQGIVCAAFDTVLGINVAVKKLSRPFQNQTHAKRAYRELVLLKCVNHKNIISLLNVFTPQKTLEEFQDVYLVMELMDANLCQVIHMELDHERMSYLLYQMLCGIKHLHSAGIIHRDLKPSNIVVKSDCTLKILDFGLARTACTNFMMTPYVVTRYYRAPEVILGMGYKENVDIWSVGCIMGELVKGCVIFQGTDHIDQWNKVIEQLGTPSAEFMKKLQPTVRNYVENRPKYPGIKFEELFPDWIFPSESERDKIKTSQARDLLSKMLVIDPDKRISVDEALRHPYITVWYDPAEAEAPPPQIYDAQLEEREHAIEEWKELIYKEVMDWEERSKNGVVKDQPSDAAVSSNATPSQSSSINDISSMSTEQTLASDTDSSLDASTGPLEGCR
T5 sequence (O75582 whole entry, the tested form may be a part): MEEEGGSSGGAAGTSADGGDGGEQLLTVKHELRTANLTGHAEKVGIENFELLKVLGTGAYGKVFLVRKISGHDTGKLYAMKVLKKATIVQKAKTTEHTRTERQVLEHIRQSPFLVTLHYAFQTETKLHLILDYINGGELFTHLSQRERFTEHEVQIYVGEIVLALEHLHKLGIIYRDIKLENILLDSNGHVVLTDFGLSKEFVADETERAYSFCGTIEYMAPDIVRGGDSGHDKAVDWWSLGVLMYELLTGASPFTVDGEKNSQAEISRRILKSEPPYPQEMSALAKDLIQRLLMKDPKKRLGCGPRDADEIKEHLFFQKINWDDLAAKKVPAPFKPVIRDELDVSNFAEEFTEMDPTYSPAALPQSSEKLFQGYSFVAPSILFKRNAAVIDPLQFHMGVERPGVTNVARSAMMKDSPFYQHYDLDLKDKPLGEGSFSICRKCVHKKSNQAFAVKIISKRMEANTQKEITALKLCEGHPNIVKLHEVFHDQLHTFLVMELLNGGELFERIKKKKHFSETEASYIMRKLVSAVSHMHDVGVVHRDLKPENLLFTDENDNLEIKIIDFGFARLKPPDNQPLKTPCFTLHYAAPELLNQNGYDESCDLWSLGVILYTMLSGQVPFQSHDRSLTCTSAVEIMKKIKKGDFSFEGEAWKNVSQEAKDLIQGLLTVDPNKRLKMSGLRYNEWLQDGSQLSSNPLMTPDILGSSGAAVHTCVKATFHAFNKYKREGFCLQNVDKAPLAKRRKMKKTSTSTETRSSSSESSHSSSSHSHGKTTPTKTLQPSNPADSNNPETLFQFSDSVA
T2 sequence (P53779 whole entry): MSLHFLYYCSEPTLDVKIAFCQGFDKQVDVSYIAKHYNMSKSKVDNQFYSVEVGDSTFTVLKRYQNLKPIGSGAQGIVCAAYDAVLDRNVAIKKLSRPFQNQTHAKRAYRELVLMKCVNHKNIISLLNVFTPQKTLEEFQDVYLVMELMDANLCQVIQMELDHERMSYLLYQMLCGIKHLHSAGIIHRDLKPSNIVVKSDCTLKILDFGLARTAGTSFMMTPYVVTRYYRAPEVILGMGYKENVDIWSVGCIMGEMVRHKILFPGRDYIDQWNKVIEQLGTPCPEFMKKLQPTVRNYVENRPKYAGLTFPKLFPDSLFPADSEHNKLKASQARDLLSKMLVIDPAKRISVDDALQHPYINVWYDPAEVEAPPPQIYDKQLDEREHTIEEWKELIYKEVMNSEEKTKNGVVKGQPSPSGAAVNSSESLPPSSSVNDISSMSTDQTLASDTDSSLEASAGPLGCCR
Sequence of FES (P07332 whole entry): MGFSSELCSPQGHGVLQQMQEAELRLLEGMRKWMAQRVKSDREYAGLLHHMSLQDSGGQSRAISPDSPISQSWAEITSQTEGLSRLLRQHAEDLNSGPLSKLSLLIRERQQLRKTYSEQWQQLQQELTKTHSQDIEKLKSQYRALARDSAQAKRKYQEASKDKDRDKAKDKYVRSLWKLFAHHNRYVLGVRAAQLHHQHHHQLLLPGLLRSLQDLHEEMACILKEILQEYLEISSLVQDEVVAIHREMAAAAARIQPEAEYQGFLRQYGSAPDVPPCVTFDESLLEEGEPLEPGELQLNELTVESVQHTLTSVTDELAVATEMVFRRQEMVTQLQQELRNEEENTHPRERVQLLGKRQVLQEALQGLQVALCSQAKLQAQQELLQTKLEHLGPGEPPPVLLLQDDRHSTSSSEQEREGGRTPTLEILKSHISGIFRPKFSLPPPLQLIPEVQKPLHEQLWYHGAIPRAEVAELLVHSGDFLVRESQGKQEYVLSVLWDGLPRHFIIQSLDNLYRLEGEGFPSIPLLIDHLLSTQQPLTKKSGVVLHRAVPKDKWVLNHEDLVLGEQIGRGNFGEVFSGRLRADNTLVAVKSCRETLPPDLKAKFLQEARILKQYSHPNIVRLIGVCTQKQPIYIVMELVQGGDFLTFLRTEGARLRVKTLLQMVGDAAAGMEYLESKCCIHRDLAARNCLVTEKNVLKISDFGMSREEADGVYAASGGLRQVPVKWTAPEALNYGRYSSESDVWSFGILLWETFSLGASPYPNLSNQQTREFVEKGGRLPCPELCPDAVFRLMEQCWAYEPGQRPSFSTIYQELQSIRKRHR
T3 sequence (O94804 whole entry): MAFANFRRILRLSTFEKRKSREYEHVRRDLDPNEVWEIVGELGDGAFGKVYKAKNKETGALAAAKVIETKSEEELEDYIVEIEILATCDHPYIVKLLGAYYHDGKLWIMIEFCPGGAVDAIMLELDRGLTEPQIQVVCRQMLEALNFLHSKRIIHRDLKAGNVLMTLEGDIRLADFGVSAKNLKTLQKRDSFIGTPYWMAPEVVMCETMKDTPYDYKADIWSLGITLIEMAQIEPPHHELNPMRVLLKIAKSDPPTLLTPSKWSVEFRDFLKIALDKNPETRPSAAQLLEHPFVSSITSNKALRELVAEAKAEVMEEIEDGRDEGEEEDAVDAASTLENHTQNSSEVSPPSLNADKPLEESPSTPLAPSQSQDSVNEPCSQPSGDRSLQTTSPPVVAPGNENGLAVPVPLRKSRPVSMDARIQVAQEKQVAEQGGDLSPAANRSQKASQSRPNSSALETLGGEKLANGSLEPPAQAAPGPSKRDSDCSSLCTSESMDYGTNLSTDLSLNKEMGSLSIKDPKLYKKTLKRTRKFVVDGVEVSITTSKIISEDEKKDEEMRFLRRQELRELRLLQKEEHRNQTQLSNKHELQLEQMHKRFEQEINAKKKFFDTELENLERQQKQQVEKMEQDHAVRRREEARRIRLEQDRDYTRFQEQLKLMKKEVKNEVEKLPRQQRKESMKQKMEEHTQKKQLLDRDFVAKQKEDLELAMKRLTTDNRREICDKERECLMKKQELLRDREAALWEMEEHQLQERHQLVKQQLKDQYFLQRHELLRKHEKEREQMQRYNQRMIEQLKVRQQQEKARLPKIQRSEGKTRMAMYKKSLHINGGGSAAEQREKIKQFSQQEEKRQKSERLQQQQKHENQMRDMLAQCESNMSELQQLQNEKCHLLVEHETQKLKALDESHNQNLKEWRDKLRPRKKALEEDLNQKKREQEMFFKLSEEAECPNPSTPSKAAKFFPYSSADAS

CC(C)Nc1ccc2cnn(-c3cncc(-c4ccc(C(=O)O)cc4)n3)c2c1 [compound 2, 2]
ΔTm at 10 µM (FES; read-out: 2): 2 °C | ΔTm at 10 µM (JNK2; read-out: 2): 1 °C | ΔTm at 10 µM (JNK3; read-out: 2): 6 °C | ΔTm at 10 µM (LOK; read-out: 2): 8 °C | ΔTm at 10 µM (MAP2K7; read-out: 2): 0 °C | ΔTm at 10 µM (MSK1_b; read-out: 2): 11 °C | ΔTm at 10 µM (MST2; read-out: 2): 4 °C | ΔTm at 10 µM (VRK1; read-out: 2): 1 °C

COc1ccc(OC(C)C)cc1Nc1cncc(-c2ccc(C(=O)O)cc2)n1 [7c]
ΔTm at 10 µM (FES; read-out: 7c): 0 °C | ΔTm at 10 µM (JNK2; read-out: 7c): 0 °C | ΔTm at 10 µM (JNK3; read-out: 7c): 1 °C | ΔTm at 10 µM (LOK; read-out: 7c): 4 °C | ΔTm at 10 µM (MAP2K7; read-out: 7c): -1 °C | ΔTm at 10 µM (MSK1_b; read-out: 7c): 6 °C | ΔTm at 10 µM (MST2; read-out: 7c): 2 °C | ΔTm at 10 µM (VRK1; read-out: 7c): 0 °C

CC(C)Oc1ccc2ccn(-c3cncc(-c4ccc(C(=O)O)cc4)n3)c2c1 [6c]
ΔTm at 10 µM (FES; read-out: 6c): -1 °C | ΔTm at 10 µM (JNK2; read-out: 6c): 0 °C | ΔTm at 10 µM (JNK3; read-out: 6c): 3 °C | ΔTm at 10 µM (LOK; read-out: 6c): 4 °C | ΔTm at 10 µM (MAP2K7; read-out: 6c): 0 °C | ΔTm at 10 µM (MSK1_b; read-out: 6c): 6 °C | ΔTm at 10 µM (MST2; read-out: 6c): 3 °C | ΔTm at 10 µM (VRK1; read-out: 6c): 0 °C
